Experimental data taken from ChEMBL document CHEMBL1122283, “Angiotensin converting enzyme inhibitors: 1-glutarylindoline-2-carboxylic acids derivatives” (J Med Chem, 1983).
pIC50: −log10 of the molar value. Values belong to the compound of their own block, whether it stands above or below them.

Legend:
Rattus norvegicus [1] = test: In vivo percent inhibition of angiotensin I pressor response 15 min after 0.4 mg/kg, iv administration in spontaneously hypertensive rat (SHR); assay type: functional; conditions: 0.25 h
[2] = biological target: T1, Angiotensin-converting enzyme (Oryctolagus cuniculus, UniProt P12822); test: In vitro inhibition of angiotensin I converting enzyme (ACE)
T1 sequence (P12822 whole entry): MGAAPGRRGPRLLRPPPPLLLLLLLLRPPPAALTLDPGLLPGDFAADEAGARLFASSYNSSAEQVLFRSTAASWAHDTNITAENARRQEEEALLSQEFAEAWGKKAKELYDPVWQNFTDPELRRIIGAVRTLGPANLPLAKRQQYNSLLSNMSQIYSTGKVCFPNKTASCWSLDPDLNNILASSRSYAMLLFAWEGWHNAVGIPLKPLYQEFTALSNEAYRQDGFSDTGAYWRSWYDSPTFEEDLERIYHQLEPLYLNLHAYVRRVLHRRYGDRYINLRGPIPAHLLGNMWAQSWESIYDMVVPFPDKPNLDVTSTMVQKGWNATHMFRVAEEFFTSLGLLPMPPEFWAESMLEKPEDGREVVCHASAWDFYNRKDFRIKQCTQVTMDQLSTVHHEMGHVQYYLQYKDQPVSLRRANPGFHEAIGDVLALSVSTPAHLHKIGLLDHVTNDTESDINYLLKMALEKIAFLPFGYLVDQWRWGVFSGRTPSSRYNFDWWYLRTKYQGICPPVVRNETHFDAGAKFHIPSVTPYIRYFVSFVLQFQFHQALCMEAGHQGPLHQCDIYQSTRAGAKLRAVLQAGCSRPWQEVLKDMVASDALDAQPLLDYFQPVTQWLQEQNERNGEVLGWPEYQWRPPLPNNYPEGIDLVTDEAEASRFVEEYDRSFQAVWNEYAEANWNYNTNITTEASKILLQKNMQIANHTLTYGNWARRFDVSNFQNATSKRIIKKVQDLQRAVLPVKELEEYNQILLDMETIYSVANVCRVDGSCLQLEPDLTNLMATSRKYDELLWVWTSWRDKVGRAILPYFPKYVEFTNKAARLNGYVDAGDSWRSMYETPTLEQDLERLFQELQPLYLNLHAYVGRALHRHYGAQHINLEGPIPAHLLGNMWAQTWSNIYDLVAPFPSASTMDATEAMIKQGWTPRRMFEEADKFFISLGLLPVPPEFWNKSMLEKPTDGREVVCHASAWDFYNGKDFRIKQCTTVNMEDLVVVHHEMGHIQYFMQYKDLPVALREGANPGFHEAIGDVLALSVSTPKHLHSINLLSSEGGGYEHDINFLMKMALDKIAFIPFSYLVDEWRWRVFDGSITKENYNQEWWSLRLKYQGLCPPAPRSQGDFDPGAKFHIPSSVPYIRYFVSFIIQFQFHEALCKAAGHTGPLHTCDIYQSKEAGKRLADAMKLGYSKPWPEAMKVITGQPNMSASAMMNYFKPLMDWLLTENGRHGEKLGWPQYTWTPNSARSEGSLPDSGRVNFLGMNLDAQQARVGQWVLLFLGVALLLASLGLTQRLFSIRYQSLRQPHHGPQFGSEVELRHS

Rattus norvegicus [3] = test: Maximal change in blood pressure recorded during the 4-day test period in spontaneously hypertensive rat (SHR)at 30 mg/kg, po dose; assay type: functional
Rattus norvegicus [4] = test: In vivo percent inhibition of angiotensin I pressor response 15 min after 0.10 mg/kg, iv administration in spontaneously hypertensive rat (SHR); assay type: functional; conditions: 0.25 h
Rattus norvegicus [5] = test: Maximal change in blood pressure recorded during the 4-day test period in spontaneously hypertensive rat (SHR)at 50 mg/kg, p.o. dose; assay type: functional; conditions: route oral
Rattus norvegicus [6] = test: In vivo percent inhibition of angiotensin I pressor response 15 min after 1 mg/kg, iv administration in spontaneously hypertensive rat (SHR); assay type: functional; conditions: for inhibition in vivo at 1 mg/kg: Rattus norvegicus, iv, 0.25 h
Rattus norvegicus [7] = test: Maximal change in blood pressure recorded during the 4-day test period in spontaneously hypertensive rat (SHR) at 30 mg/kg, po dose; assay type: functional
Rattus norvegicus [8] = test: In vivo percent inhibition of angiotensin I pressor response 15 min after 10 mg/kg, iv administration in spontaneously hypertensive rat (SHR); assay type: functional; conditions: 0.25 h
Rattus norvegicus [9] = test: In vivo percent inhibition of angiotensin I pressor response 15 min after 10mg/kg, iv administration in spontaneously hypertensive rat (SHR); assay type: functional; conditions: 0.25 h
Rattus norvegicus [10] = test: In vivo percent inhibition of angiotensin I pressor response 15 min after 2 mg/kg, iv administration in spontaneously hypertensive rat (SHR); assay type: functional; conditions: 0.25 h
[11] = biological target: T1, Angiotensin-converting enzyme; test: In vitro inhibition of angiotensin converting enzyme
Rattus norvegicus [12] = test: In vivo percent inhibition of angiotensin I pressor response 15 min after 0.3 mg/kg, iv administration in spontaneously hypertensive rat (SHR); assay type: functional; conditions: 0.25 h
Rattus norvegicus [13] = test: Maximal change in blood pressure recorded during the 4-day test period in spontaneously hypertensive rat (SHR)at 10mg/kg, po dose; assay type: functional

pIC50 [2]: 4.96
Structure (SMILES): CCOC(=O)[C@H](CCc1ccccc1)C[C@@H](C)C(=O)N1c2ccccc2CC1C(=O)O (stereo not given in full)
inhibition in vivo at 0.4 mg/kg (Rattus norvegicus [1]): 89% | Max delta BP (Rattus norvegicus [3]): -70 mmHg

pIC50 [2]: 8.32
Structure (SMILES): C[C@H](C[C@@H](CCc1ccccc1)C(=O)O)C(=O)N1c2ccccc2CC1C(=O)O (stereo not given in full)
inhibition in vivo at 0.1 mg/kg (Rattus norvegicus [4]): 60%

pIC50 [2]: 4.96
Structure (SMILES): CCOC(=O)CC[C@@H](C)C(=O)N1c2ccccc2CC1C(=O)O (stereo not given in full)
Max delta BP (Rattus norvegicus [5]): -66 mmHg | inhibition in vivo at 0.1 mg/kg (Rattus norvegicus [4]): 27%

pIC50 [2]: 3.54
Structure (SMILES): CC(C)(CC(=O)O)CC(=O)N1c2ccccc2CC1C(=O)O (stereo not given)

pIC50 [2]: 7.36
Structure (SMILES): C[C@H](CCC(=O)O)C(=O)N1c2ccccc2CC1C(=O)O (stereo not given in full)
Max delta BP (Rattus norvegicus [3]): -35 mmHg | inhibition in vivo at 1 mg/kg (Rattus norvegicus [6]): 94%

pIC50 [2]: 6.52
Structure (SMILES): CC(CC(=O)O)C(=O)N1c2ccccc2C[C@H]1C(=O)O (stereo not given in full)
inhibition in vivo at 1 mg/kg (Rattus norvegicus [6]): 27%

pIC50 [2]: 6.59
Structure (SMILES): O=C(O)CCCC(=O)N1c2ccccc2CC1C(=O)O (stereo not given)
Max delta BP (Rattus norvegicus [7]): -37 mmHg | inhibition in vivo at 10 mg/kg (Rattus norvegicus [8]): 78%

pIC50 [2]: 7.19
Structure (SMILES): CC(CCC(=O)O)C(=O)N1c2ccccc2CC1C(=O)O (stereo not given)
Max delta BP (Rattus norvegicus [5]): -61 mmHg | inhibition in vivo at 1 mg/kg (Rattus norvegicus [6]): 84%

pIC50 [2]: 4.80
Structure (SMILES): CC(CCC(N)=O)C(=O)N1c2ccccc2CC1C(=O)O (stereo not given)
inhibition in vivo at 10 mg/kg (Rattus norvegicus [9]): 71%

pIC50 [2]: 5.37
Structure (SMILES): CCOC(=O)[C@@H](CCC(=O)N1c2ccccc2CC1C(=O)O)CCc1ccccc1 (stereo not given in full)
inhibition in vivo at 1 mg/kg (Rattus norvegicus [6]): 17%

pIC50 [2]: 7.30
Structure (SMILES): CC(C)C(CCC(=O)O)C(=O)N1c2ccccc2CC1C(=O)O (stereo not given)
inhibition in vivo at 1 mg/kg (Rattus norvegicus [6]): 77%

pIC50 [2]: 7.48
Structure (SMILES): O=C(O)C1Cc2ccccc2N1C(=O)CC[C@@H](CCc1ccccc1)C(=O)O (stereo not given in full)

pIC50 [2]: 6.04
Structure (SMILES): CC(CCC(=O)N1c2ccccc2CC1C(=O)O)C(=O)O (stereo not given)
inhibition in vivo at 10 mg/kg (Rattus norvegicus [9]): 41%

pIC50 [2]: 3.77
Structure (SMILES): CCOC(=O)C1Cc2ccccc2N1C(=O)CCC(C)C(=O)O (stereo not given)
inhibition in vivo at 10 mg/kg (Rattus norvegicus [9]): 11%

pIC50 [2]: 7.41
Structure (SMILES): O=C(O)C(CCC(=O)N1c2ccccc2CC1C(=O)O)CCc1ccccc1 (stereo not given)
inhibition in vivo at 10 mg/kg (Rattus norvegicus [9]): 75% | Max delta BP (Rattus norvegicus [5]): -46 mmHg

pIC50 [2]: 4.43
Structure (SMILES): CC(CC(=O)O)CC(=O)N1c2ccccc2CC1C(=O)O (stereo not given)
inhibition in vivo at 10 mg/kg (Rattus norvegicus [9]): 20%

pIC50 [2]: 7.27
Structure (SMILES): CC(CC(C)C(=O)N1c2ccccc2CC1C(=O)O)C(=O)O (stereo in doubt; 6n)
Inhibition (Rattus norvegicus [6]; 1 mg/kg): 84%

The remaining lines, values behind:

Structure (SMILES): C[C@H](C[C@@H](C)C(=O)N1CCC[C@H]1C(=O)O)C(=O)O
pIC50 [2]: 5.32

Structure (SMILES): C[C@H](C[C@@H](C)C(=O)N1c2ccccc2CC1C(=O)O)C(=O)O (stereo not given in full)
Max delta BP (Rattus norvegicus [5]): -39 mmHg | pIC50 [2]: 7.55 | inhibition in vivo at 0.1 mg/kg (Rattus norvegicus [4]): 45%

Structure (SMILES): COC(=O)CCC(C)C(=O)N1c2ccccc2CC1C(=O)O (stereo not given)
Max delta BP (Rattus norvegicus [5]): -61 mmHg | pIC50 [2]: 5.16 | inhibition in vivo at 0.1 mg/kg (Rattus norvegicus [4]): 45%

Structure (SMILES): Cc1ccc2c(c1)CC(C(=O)O)N2C(=O)[C@H](C)C[C@@H](C)C(=O)O (stereo not given in full)
inhibition in vivo at 2 mg/kg (Rattus norvegicus [10]): 40% | pIC50 [11]: 6.31

Structure (SMILES): O=C(O)CCCC(=O)N1CCC[C@H]1C(=O)O
pIC50 [2]: 4.15

Structure (SMILES): COc1ccc2c(c1)CC(C(=O)O)N2C(=O)[C@H](C)C[C@@H](C)C(=O)O (stereo not given in full)
pIC50 [2]: 6.96 | inhibition in vivo at 1 mg/kg (Rattus norvegicus [6]): 56%

Structure (SMILES): CCOC(=O)C1Cc2ccccc2N1C(=O)C(C)CC(C)C(=O)O (stereo not given)
inhibition in vivo at 10 mg/kg (Rattus norvegicus [9]): 84% | Max delta BP (Rattus norvegicus [5]): -33 mmHg | pIC50 [2]: 5.06

Structure (SMILES): CCOC(=O)C1Cc2ccccc2N1C(=O)[C@H](C)C[C@@H](C)C(=O)O (stereo not given in full)
pIC50 [2]: 4.55 | inhibition in vivo at 0.3 mg/kg (Rattus norvegicus [12]): 16%

Structure (SMILES): CCOC(=O)[C@H](C)C[C@@H](C)C(=O)N1c2ccccc2CC1C(=O)O (stereo not given in full)
Max delta BP (Rattus norvegicus [5]): -75 mmHg | pIC50 [2]: 5.26 | inhibition in vivo at 0.1 mg/kg (Rattus norvegicus [4]): 52%

Structure (SMILES): C[C@H](C[C@@H](C)C(=O)N1c2ccc(Cl)cc2CC1C(=O)O)C(=O)O (stereo not given in full)
pIC50 [2]: 6.36 | inhibition in vivo at 2 mg/kg (Rattus norvegicus [10]): 32%

Structure (SMILES): CC(CC(C)C(=O)N1c2ccccc2CC1C(=O)O)C(=O)O (stereo in doubt; 6m)
pIC50 [2]: 6.72 | inhibition in vivo at 1 mg/kg (Rattus norvegicus [6]): 76%

Structure (SMILES): C[C@H](CS)C(=O)N1CCC[C@H]1C(=O)O [CAPTOPRIL]
Max delta BP (Rattus norvegicus [13]): -45 mmHg | Max delta BP (Rattus norvegicus [3]): -55 mmHg | inhibition in vivo at 1 mg/kg (Rattus norvegicus [6]): 90%
